Assay results published in the supplement of paper PMC13386468.

Key:
Test in all cases: IC50 for competition of protein binding to Kinobeads
Conditions in all cases: assay detail: Kinobeads competition in P. falciparum blood-stage lysate
[1] = biological target: A0A143ZZT8
[2] = biological target: UniProt C0H4M6
[3] = biological target: UniProt C0H4S5
[4] = biological target: UniProt C0H551
[5] = biological target: UniProt C6KSV2
[6] = biological target: UniProt C6KT34
[7] = biological target: UniProt O77306
[8] = biological target: UniProt O77310
Sequence of UniProt O77310 (O77310 whole entry): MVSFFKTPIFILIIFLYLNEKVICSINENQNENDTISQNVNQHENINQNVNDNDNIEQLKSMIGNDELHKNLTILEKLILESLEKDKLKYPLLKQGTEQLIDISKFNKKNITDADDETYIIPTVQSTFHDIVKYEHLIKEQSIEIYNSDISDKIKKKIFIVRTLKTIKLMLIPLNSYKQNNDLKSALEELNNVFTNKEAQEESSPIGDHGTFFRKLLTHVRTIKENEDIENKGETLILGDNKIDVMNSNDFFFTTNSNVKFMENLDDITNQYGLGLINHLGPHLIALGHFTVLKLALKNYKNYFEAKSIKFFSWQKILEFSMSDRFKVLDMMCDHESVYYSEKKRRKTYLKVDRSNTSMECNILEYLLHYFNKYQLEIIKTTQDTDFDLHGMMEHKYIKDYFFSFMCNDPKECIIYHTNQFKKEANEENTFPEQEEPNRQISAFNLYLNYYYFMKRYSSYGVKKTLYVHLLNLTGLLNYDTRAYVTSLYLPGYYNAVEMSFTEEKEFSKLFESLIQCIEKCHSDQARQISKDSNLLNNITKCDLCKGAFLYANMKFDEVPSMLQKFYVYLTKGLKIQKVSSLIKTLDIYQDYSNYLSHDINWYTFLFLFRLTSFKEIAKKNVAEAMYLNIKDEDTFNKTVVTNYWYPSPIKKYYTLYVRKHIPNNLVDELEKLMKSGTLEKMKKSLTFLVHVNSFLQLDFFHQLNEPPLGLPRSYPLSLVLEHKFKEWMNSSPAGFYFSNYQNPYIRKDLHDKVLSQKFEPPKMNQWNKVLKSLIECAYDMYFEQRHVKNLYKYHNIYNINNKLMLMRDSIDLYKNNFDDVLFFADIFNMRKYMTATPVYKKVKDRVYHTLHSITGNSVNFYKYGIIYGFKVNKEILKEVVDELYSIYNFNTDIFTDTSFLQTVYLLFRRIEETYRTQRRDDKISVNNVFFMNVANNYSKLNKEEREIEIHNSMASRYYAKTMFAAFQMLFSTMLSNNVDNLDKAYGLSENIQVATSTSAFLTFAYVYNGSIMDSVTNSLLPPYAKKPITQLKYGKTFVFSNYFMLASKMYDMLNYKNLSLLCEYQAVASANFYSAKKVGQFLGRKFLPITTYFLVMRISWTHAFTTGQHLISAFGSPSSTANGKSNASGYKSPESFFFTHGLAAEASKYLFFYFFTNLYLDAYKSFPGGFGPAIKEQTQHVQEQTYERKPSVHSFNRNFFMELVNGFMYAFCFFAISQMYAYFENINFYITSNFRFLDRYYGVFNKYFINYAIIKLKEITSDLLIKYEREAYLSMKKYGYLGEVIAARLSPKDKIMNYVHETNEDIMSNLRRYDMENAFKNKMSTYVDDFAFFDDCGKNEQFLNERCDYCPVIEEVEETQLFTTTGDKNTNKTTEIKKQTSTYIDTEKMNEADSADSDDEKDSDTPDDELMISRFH

[9] = biological target: UniProt O77390
[10] = biological target: UniProt O96221
[11] = biological target: UniProt Q7K6A9
[12] = biological target: UniProt Q7KQJ9
Sequence of UniProt Q7KQJ9 (Q7KQJ9 whole entry): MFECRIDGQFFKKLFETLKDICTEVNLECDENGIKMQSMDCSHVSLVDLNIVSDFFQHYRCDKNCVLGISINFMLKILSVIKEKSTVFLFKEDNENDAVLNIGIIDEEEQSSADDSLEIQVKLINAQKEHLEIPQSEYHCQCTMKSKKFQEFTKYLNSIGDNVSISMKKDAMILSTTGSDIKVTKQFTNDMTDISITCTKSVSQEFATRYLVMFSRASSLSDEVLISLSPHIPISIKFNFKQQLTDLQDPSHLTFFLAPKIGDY

[13] = biological target: UniProt Q8I1V0
[14] = biological target: UniProt Q8I202
[15] = biological target: UniProt Q8I2I2
[16] = biological target: UniProt Q8I2J4
Sequence of UniProt Q8I2J4 (Q8I2J4 whole entry): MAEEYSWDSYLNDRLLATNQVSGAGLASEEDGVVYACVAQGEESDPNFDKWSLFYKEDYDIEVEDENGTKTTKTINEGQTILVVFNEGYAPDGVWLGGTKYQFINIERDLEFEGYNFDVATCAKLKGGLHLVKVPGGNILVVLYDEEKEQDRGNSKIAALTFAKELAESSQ

[17] = biological target: UniProt Q8I2P8
[18] = biological target: UniProt Q8I353
[19] = biological target: UniProt Q8I3M5
[20] = biological target: UniProt Q8I3N3
[21] = biological target: UniProt Q8I566
Sequence of UniProt Q8I566 (Q8I566 whole entry): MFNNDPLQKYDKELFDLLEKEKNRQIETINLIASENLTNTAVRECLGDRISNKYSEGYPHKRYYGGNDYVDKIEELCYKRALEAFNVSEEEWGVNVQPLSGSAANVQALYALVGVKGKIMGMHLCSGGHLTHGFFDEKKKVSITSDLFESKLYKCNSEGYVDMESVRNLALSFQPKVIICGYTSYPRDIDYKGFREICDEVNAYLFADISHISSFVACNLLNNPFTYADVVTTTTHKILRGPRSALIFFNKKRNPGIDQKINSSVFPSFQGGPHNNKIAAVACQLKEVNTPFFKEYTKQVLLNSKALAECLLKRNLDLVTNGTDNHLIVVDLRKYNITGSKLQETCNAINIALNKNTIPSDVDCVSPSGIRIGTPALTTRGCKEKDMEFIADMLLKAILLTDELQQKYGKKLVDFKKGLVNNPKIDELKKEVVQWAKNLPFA

[22] = biological target: UniProt Q8IAX8
Sequence of UniProt Q8IAX8 (Q8IAX8 whole entry): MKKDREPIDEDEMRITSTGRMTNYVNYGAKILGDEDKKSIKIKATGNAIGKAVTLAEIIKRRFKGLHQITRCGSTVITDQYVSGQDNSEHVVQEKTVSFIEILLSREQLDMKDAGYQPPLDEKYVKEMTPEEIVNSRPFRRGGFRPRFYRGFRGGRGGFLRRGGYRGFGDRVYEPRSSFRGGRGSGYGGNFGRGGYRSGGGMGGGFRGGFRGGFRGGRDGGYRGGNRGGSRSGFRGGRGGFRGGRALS

[23] = biological target: UniProt Q8IBQ9
[24] = biological target: UniProt Q8IC16
[25] = biological target: UniProt Q8ID28
[26] = biological target: UniProt Q8ID33
[27] = biological target: UniProt Q8ID42
[28] = biological target: UniProt Q8IDJ8
[29] = biological target: UniProt Q8IDM3
[30] = biological target: UniProt Q8IE82
[31] = biological target: UniProt Q8IE84
[32] = biological target: UniProt Q8IEE9
[33] = biological target: UniProt Q8IHT9
[34] = biological target: UniProt Q8IHY0
[35] = biological target: UniProt Q8IHZ9
Sequence of UniProt Q8IHZ9 (Q8IHZ9 whole entry): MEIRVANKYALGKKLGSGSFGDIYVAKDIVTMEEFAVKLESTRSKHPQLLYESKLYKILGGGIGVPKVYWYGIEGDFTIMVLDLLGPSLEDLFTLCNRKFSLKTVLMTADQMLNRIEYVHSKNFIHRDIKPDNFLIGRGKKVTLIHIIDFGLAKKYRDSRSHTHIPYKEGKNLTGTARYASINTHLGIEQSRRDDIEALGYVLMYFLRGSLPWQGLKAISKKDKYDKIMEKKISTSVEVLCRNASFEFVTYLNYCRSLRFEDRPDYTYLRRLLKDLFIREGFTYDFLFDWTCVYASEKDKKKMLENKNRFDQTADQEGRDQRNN

[36] = biological target: UniProt Q8II11
[37] = biological target: UniProt Q8II61
[38] = biological target: UniProt Q8II62
[39] = biological target: UniProt Q8IIS9
[40] = biological target: UniProt Q8IIW5
[41] = biological target: UniProt Q8IJA9
Sequence of UniProt Q8IJA9 (Q8IJA9 whole entry): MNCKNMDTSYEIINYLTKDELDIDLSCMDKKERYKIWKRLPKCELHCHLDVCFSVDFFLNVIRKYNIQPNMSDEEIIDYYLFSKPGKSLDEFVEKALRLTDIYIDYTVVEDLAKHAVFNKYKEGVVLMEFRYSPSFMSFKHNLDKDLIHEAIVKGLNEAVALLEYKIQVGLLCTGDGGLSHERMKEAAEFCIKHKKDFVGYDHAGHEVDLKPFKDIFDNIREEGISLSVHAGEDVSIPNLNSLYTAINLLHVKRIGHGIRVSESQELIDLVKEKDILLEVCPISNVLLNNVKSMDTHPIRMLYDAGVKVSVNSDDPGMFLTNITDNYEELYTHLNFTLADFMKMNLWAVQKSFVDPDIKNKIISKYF

[42] = biological target: UniProt Q8IJI4
[43] = biological target: UniProt Q8IJN3
[44] = biological target: UniProt Q8IJQ1
[45] = biological target: UniProt Q8IJT9
[46] = biological target: UniProt Q8IJW4
[47] = biological target: UniProt Q8IK91
[48] = biological target: UniProt Q8IL19
[49] = biological target: UniProt Q8ILS0
[50] = biological target: UniProt Q8ILZ7
[51] = biological target: UniProt Q8IM32

Measured: IC50
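Further: native unpurified kinases from lysate captured on beads bearing immobilized kinase inhibitors, with bead-bound kinases quantified by mass spectrometry across compound doses.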

O=c1[nH]c2ccc(Cl)cc2c(NC2CN3CCC2CC3)c1-c1nc2ccccc2[nH]1 (stereo unspecified) [CHIR-124]
< 82.3 nM: [36]
> 20 µM: all other assays above
